{"source": "ChEMBL document CHEMBL3259721", "about": "“Base substituted 5'-O-(N-isoleucyl)sulfamoyl nucleoside analogues as potential antibacterial agents” (Bioorg Med Chem, 2014)", "key": {"[1]": {"system": "Escherichia coli", "experiment": "Antibacterial activity against wild type Escherichia coli assessed as growth inhibition in Luria broth at 5 mM after 8 to 18 hrs by disc diffusion method", "assay_type": "functional, organism-based"}, "[2]": {"molecular_target": "Isoleucine--tRNA ligase (Escherichia coli K-12) (UniProt P00956)", "sequence (P00956 whole entry)": "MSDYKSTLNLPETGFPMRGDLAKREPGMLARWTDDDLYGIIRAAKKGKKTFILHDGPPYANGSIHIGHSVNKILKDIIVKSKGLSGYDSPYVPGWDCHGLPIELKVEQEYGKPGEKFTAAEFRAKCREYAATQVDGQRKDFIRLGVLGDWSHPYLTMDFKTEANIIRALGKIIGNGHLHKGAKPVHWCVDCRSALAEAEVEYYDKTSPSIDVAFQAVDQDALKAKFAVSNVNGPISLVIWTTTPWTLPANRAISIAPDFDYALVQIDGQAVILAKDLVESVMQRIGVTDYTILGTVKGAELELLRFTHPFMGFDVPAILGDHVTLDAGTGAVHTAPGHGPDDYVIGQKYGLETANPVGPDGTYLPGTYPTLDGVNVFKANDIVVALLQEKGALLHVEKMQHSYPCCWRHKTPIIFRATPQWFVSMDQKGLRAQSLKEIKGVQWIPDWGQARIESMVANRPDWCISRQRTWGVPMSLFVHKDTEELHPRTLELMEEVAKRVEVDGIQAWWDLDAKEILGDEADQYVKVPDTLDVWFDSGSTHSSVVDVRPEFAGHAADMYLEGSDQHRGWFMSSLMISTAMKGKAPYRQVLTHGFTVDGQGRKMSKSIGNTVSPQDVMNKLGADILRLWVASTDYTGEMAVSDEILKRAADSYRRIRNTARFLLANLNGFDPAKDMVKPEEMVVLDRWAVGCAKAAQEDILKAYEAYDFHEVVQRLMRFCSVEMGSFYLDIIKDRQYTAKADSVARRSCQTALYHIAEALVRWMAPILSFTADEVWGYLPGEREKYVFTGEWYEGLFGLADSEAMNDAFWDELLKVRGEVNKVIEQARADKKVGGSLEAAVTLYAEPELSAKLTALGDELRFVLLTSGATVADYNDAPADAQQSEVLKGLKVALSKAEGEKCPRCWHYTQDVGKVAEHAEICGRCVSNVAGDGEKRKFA", "experiment": "Inhibition of Isoleucine-tRNA synthetase in wild type Escherichia coli S30 cell extract assessed as inhibition of [C14]isoleucine incorporation in tRNA under in vitro aminoacylation conditions at 3.13 uM by liquid scintillation counting"}, "[3]": {"system": "Escherichia coli", "experiment": "Antibacterial activity against wild type Escherichia coli assessed as growth inhibition in Luria broth at 5 mM after 8 to 18 hrs by broth dilution test", "assay_type": "functional, organism-based"}, "[4]": {"system": "Escherichia coli", "experiment": "Antibacterial activity against wild type Escherichia coli Ara-Yej (BW39758) assessed as growth inhibition in Luria broth at 10 to 60 uM after 8 hrs by broth dilution test", "assay_type": "functional, organism-based"}}, "note": "Activity calls are given as the source filed them. No cut-off for these calls is given here. Peptide text beside a SMILES is read from it. * marks the point of attachment. X6 = CC[C@H](C)[C@H](N*)C(=O)NS(=O)(=O)OC[C@H]1O[C@@H](n2cnc3c([N+](=O)[O-])cccc32)[C@H](O)[C@@H]1O; X7 = CC[C@H](C)[C@H](N*)C(=O)NS(=O)(=O)OC[C@H]1O[C@@H](n2cnc3c(=O)[nH]c(N)nc32)[C@H](O)[C@@H]1O; X3 = CC[C@H](C)[C@H](N*)C(=O)NS(=O)(=O)OC[C@H]1O[C@@H](n2ccc(=O)[nH]c2=O)[C@H](O)[C@@H]1O; X1 = CC[C@H](C)[C@H](N*)C(=O)NS(=O)(=O)OC[C@H]1O[C@@H](n2cnc3c(N)cccc32)[C@H](O)[C@@H]1O; X2 = CC[C@H](C)[C@H](N*)C(=O)NS(=O)(=O)OC[C@H]1O[C@@H](n2cnc3c(N)ncnc32)[C@H](O)[C@@H]1O; X4 = CC[C@H](C)[C@H](N*)C(=O)NS(=O)(=O)OC[C@H]1O[C@@H](n2cnc3c(O)ncnc32)[C@H](O)[C@@H]1O; X5 = CC[C@H](C)[C@H](N*)C(=O)NS(=O)(=O)OC[C@H]1O[C@@H](n2ccc(N)nc2=O)[C@H](O)[C@@H]1O; For = O=C*"}
{"smiles": "CC[C@H](C)[C@H](N)C(=O)NS(=O)(=O)OC[C@H]1O[C@@H](n2ccc(=O)[nH]c2=O)[C@H](O)[C@@H]1O", "values": [{"measurement": "growth inhibition (GI)", "setting": "[1]", "value": "inactive"}, {"measurement": "inhibition", "setting": "[2]", "value": "Active"}]}
{"smiles": "CC[C@H](C)[C@H](N)C(=O)NS(=O)(=O)OC[C@H]1O[C@@H](n2cnc3c(O)ncnc32)[C@H](O)[C@@H]1O", "values": [{"measurement": "growth inhibition (GI)", "setting": "[1]", "value": "inactive"}, {"measurement": "inhibition", "setting": "[2]", "value": "Active"}]}
{"smiles": "CC[C@H](C)[C@H](N)C(=O)NS(=O)(=O)OC[C@H]1O[C@@H](n2cnc3c(N)ncnc32)[C@H](O)[C@@H]1O", "values": [{"measurement": "growth inhibition (GI)", "setting": "[1]", "value": "inactive"}, {"measurement": "inhibition", "setting": "[2]", "value": "Active"}]}
{"smiles": "CC[C@H](C)[C@H](N)C(=O)NS(=O)(=O)OC[C@H]1O[C@@H](n2ccc(N)nc2=O)[C@H](O)[C@@H]1O", "values": [{"measurement": "growth inhibition (GI)", "setting": "[1]", "value": "inactive"}, {"measurement": "inhibition", "setting": "[2]", "value": "Active"}]}
{"smiles": "CC[C@H](C)[C@H](NC(=O)[C@H](C)NC(=O)[C@H](CC(N)=O)NC(=O)CNC(=O)[C@@H](NC(=O)[C@H](CCCNC(=N)N)NC(=O)[C@H](CCSC)NC=O)[C@@H](C)O)C(=O)NS(=O)(=O)OC[C@H]1O[C@@H](n2ccc(=O)[nH]c2=O)[C@H](O)[C@@H]1O", "note": "(For-MRTGNA-X3)", "values": [{"measurement": "growth inhibition (GI)", "setting": "[3]", "value": "inactive"}, {"measurement": "growth inhibition (GI)", "setting": "[4]", "value": "inactive"}]}
{"smiles": "CC[C@H](C)[C@H](NC(=O)[C@H](C)NC(=O)[C@H](CC(N)=O)NC(=O)CNC(=O)[C@@H](NC(=O)[C@H](CCCNC(=N)N)NC(=O)[C@H](CCSC)NC=O)[C@@H](C)O)C(=O)NS(=O)(=O)OC[C@H]1O[C@@H](n2cnc3c([N+](=O)[O-])cccc32)[C@H](O)[C@@H]1O", "note": "(For-MRTGNA-X6)", "values": [{"measurement": "growth inhibition (GI)", "setting": "[3]", "value": "inactive"}]}
{"smiles": "CC[C@H](C)[C@H](N)C(=O)NS(=O)(=O)OC[C@H]1O[C@@H](n2cnc3c([N+](=O)[O-])cccc32)[C@H](O)[C@@H]1O", "values": [{"measurement": "growth inhibition (GI)", "setting": "[1]", "value": "inactive"}, {"measurement": "inhibition", "setting": "[2]", "value": "Active"}]}
{"smiles": "CC[C@H](C)[C@H](N)C(=O)NS(=O)(=O)OC[C@H]1O[C@@H](n2cnc3c(=O)[nH]c(N)nc32)[C@H](O)[C@@H]1O", "values": [{"measurement": "growth inhibition (GI)", "setting": "[1]", "value": "inactive"}, {"measurement": "inhibition", "setting": "[2]", "value": "Active"}]}
{"smiles": "CC[C@H](C)[C@H](NC(=O)[C@H](C)NC(=O)[C@H](CC(N)=O)NC(=O)CNC(=O)[C@@H](NC(=O)[C@H](CCCNC(=N)N)NC(=O)[C@H](CCSC)NC=O)[C@@H](C)O)C(=O)NS(=O)(=O)OC[C@H]1O[C@@H](n2cnc3c(N)ncnc32)[C@H](O)[C@@H]1O", "note": "(For-MRTGNA-X2)", "values": [{"measurement": "growth inhibition (GI)", "setting": "[3]", "value": "inactive"}, {"measurement": "growth inhibition (GI)", "setting": "[4]", "value": "Active"}]}
{"smiles": "CC[C@H](C)[C@H](N)C(=O)NS(=O)(=O)OC[C@H]1O[C@@H](n2cnc3c(N)cccc32)[C@H](O)[C@@H]1O", "values": [{"measurement": "growth inhibition (GI)", "setting": "[1]", "value": "inactive"}, {"measurement": "inhibition", "setting": "[2]", "value": "Active"}]}
{"smiles": "CC[C@H](C)[C@H](NC(=O)[C@H](C)NC(=O)[C@H](CC(N)=O)NC(=O)CNC(=O)[C@@H](NC(=O)[C@H](CCCNC(=N)N)NC(=O)[C@H](CCSC)NC=O)[C@@H](C)O)C(=O)NS(=O)(=O)OC[C@H]1O[C@@H](n2cnc3c(N)cccc32)[C@H](O)[C@@H]1O", "note": "(For-MRTGNA-X1)", "values": [{"measurement": "growth inhibition (GI)", "setting": "[3]", "value": "inactive"}, {"measurement": "growth inhibition (GI)", "setting": "[4]", "value": "Active"}]}
{"smiles": "CC[C@H](C)[C@H](NC(=O)[C@H](C)NC(=O)[C@H](CC(N)=O)NC(=O)CNC(=O)[C@@H](NC(=O)[C@H](CCCNC(=N)N)NC(=O)[C@H](CCSC)NC=O)[C@@H](C)O)C(=O)NS(=O)(=O)OC[C@H]1O[C@@H](n2ccc(N)nc2=O)[C@H](O)[C@@H]1O", "note": "(For-MRTGNA-X5)", "values": [{"measurement": "growth inhibition (GI)", "setting": "[3]", "value": "inactive"}]}
{"smiles": "CC[C@H](C)[C@H](NC(=O)[C@H](C)NC(=O)[C@H](CC(N)=O)NC(=O)CNC(=O)[C@@H](NC(=O)[C@H](CCCNC(=N)N)NC(=O)[C@H](CCSC)NC=O)[C@@H](C)O)C(=O)NS(=O)(=O)OC[C@H]1O[C@@H](n2cnc3c(=O)[nH]c(N)nc32)[C@H](O)[C@@H]1O", "note": "(For-MRTGNA-X7)", "values": [{"measurement": "growth inhibition (GI)", "setting": "[3]", "value": "inactive"}]}
{"smiles": "CC[C@H](C)[C@H](NC(=O)[C@H](C)NC(=O)[C@H](CC(N)=O)NC(=O)CNC(=O)[C@@H](NC(=O)[C@H](CCCNC(=N)N)NC(=O)[C@H](CCSC)NC=O)[C@@H](C)O)C(=O)NS(=O)(=O)OC[C@H]1O[C@@H](n2cnc3c(O)ncnc32)[C@H](O)[C@@H]1O", "note": "(For-MRTGNA-X4)", "values": [{"measurement": "growth inhibition (GI)", "setting": "[3]", "value": "inactive"}, {"measurement": "growth inhibition (GI)", "setting": "[4]", "value": "Active"}]}
